Results: publication PMC5065625, “Structure-mechanism-based engineering of chemical regulators targeting distinct pathological factors in Alzheimer's disease” (Nature Communications, 2016)

What was measured:
metal-free Aβ40/Aβ42 = metal-free Aβ40/Aβ42 (Homo sapiens, UniProt P05067); experiment: Aβ aggregation inhibition/disaggregation experiments (gel/western blot, TEM), metal-free; format: biochemical; conditions: Aβ 25 μM, compound 50 μM, 37 °C, 24 h; gel/western blot and TEM
Description: The ability of 1–4 to control the aggregation of both metal-free Aβ and metal-Aβ in inhibition (Fig. 2) and disaggregation experiments (Supplementary Fig. 1) was evaluated using the two major Aβ isoforms (Aβ40/Aβ42)[1][2][3][6][16] found in the AD-affected brain. Molecular weight (MW) distributions and morphologies of the resulting Aβ species were determined by gel electrophoresis followed by western blotting (gel/western blot) and transmission electron microscopy (TEM). Generally, under the experimental conditions employed herein, compound-free Aβ samples with and without metal ions assemble into a distribution of large aggregates that are too big to penetrate into the gel matrix, which yields very little smearing in the gel/western blots, but they can be visualized by TEM. […]
Before experiments, Aβ40 or Aβ42 was dissolved in ammonium hydroxide (NH4OH; 1% v/v, aq). […] The concentration of the solution was determined by measuring the absorbance of the solution at 280 nm (ɛ=1,450 M^–1 cm^–1 for Aβ40; ɛ=1,490 M^–1 cm^–1 for Aβ42). […]
The Aβ samples from in vivo or in vitro experiments were analysed by gel electrophoresis followed by western blotting using an anti-Aβ antibody (6E10)[24][25][27][28][29]. […]

[1] = UV–vis variable-pH titration of Cu(II)–2 (binding affinity)
Description: The pKa value for 2 was determined by UV–vis variable-pH titrations as previously reported. To establish the pKa value, a solution (10 mM NaOH, pH 12, 100 mM NaCl) of 2 (100 μM) was titrated with small amounts of HCl. At least 30 spectra were recorded in the range of pH 2–10. Similarly, a solution containing CuCl2 and 2 (50 μM) in a metal to ligand ratio of 1:2 was titrated with small additions of HCl and at least 30 spectra were recorded over the range pH 2–7. The acidity and stability constants were calculated by using the HypSpec program (Protonic Software, UK)[56]. Speciation diagrams were modelled in the HySS2009 program (Protonic Software)[57].

metal-free Aβ40/Aβ42, sequence (P05067 672-711 limits assumed): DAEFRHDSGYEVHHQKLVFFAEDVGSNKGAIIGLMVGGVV

| SMILES | Modulation of metal-free Aβ aggregation (metal-free Aβ40/Aβ42) | logβ (Cu + L = CuL) ([1]; Cu(II):L = 1:2, [2] = 50 μM) | Approximate dissociation constant for Cu(II), 1:1 complex ([1]; UV–vis variable-pH titrations) | pCu (=−log[Cu(II)]free) ([1]; pH 6.6) |
| --- | --- | --- | --- | --- |
| CN(C)c1ccc(NCc2ccc[nH]2)cc1 [compound 4, N^1-((1H-pyrrol-2-yl)methyl)-N^4,N^4-dimethylbenzene-1,4-diamine] | pronounced influence on metal-free Aβ aggregation |  |  |  |
| COc1cc(NCc2ccccn2)cc(OC)c1 [compound 2, 3,5-dimethoxy-N-(pyridin-2-ylmethyl)aniline] |  | 5.6(8) | micromolar range | 6.24 |
